Patent EP0297435A2, “Aminopropanol derivatives of 3-(3'-hydroxyphenyl)-1-propanone, process for their preparation and medicines containing these compounds” (Helopharm W. Petrik GmbH & Co.KG., priority 1987, dated 1989)

Tests used:
[1] = tested on: Meerschweinchen-Papillarmuskel; experiment: Effect on contraction force of the heart, guinea pig papillary muscle; format: cell-based; settings: contraction force (negative inotropy); for IC20: read-out: C20 CF
Source text: Die Wirkung auf die Kontraktionskraft des Herzens wurde am Meerschweinchen-Papillarmuskel untersucht. Hämodynamische Studien wurden bei gesunden, wie auch akut infarzierten Hunden durchgeführt.

[2] = tested on: Purkinje-Fasern aus Hundeherzen; experiment: Electrophysiological studies on Purkinje fibres from dog hearts (Vmax); format: cell-based, Hund; settings: for C20 Vmax / IC20: Purkinje-Fasern aus Hundeherzen; for Prematurity Faktor Vmax: Vorzeitigkeitsindex, activity on premature extrasystoles; for Rate-Faktor von Vmax: specifically stronger activity at higher frequencies; for IC20: read-out: C20 Vmax
Source text: Die antiarrhythmische Wirksamkeit der erfindungsgemäßen Verbindungen wurde sowohl anhand von elektrophysiologischen Studien an Purkinje-Fasern aus Hundeherzen sowie mit Hilfe von Ouabaininduzierten ventrikulären Tachykardien bei Hunden bestimmt. […]
Als zusätzliches Kriterium wurde der Vorzeitigkeitsindex (Prematurity-Faktor) bestimmt, der die erwünschte Wirksamkeit der erfindungsgemäßen Verbindungen bei vorzeitigen Extrasystolen charakterisiert.

[3] = Acute toxicity LD50 in mice, i.v.; settings: mouse, in vivo, iv; Maus (i.v.); read-out: LD₅₀
[4] = Acute toxicity LD50 in rats, i.v.; settings: rat, in vivo, iv; Ratte (i.v.); read-out: LD₅₀

Row | Compound | C20 CF [1] | C20 Vmax [2] | Prematurity Faktor Vmax [2] | Rate-Faktor von Vmax [2] | IC20 [1] [µM] | IC20 [2] [µM] | LD50 [3] [mg/kg] | LD50 [4] [mg/kg]
1 | CCCNCC(O)COc1ccccc1C(=O)CCc1ccccc1 (centres unmarked) [A, Propafenon, reference compound] | 5,3 µM | 3,7 µM | 0,97 | 1,08 | – | – | – | –
2 | CCCNCC(O)COc1cccc(CCC(=O)c2ccc(OC)cc2)c1.Cl (centres unmarked) [Beispiel 7, 1-(4-Methoxyphenyl)-3-[3′-(2-hydroxy-3-n-propylaminopropoxy)-phenyl]-1-propanon-hydrochlorid] | – | – | 0,90 | 1,21 | 6 | 2.9 | – | –
3 | CCC(C)(C)NCC(O)COc1cccc(CCC(=O)c2cc(OC)c(OC)c(OC)c2)c1.Cl (centres unmarked) [Beispiel 8, 1-(3,4,5-Trimethoxyphenyl)-3-[3′-(2-hydroxy-3-tert.-pentylaminopropoxy)-phenyl]-1-propanon-hydrochlorid] | – | – | – | 5,00 | 3 | 1.6 | – | –
4 | COc1cc(C(=O)CCc2cccc(OCC(O)CNC(C)C)c2)cc(OC)c1OC.Cl (centres unmarked) [Beispiel 9, 1-(3,4,5-Trimethoxyphenyl)-3-[3′-(2-hydroxy-3-isopropylaminopropoxy)-phenyl]-1-propanon-hydrochlorid] | – | – | 1,01 | 1,26 | 15 | 9.1 | – | –
5 | COc1cc(C(=O)CCc2cccc(OCC(O)CNC(C)(C)C)c2)cc(OC)c1OC.Cl (centres unmarked) [Beispiel 10, 1-(3,4,5-Trimethoxyphenyl)-3-[3′-(2-hydroxy-3-tert.-butylaminopropoxy)-phenyl]-1-propanon-hydrochlorid] | – | – | 0,99 | 1,17 | 5 | 2.6 | – | –
6 | CCC(C)(C)NCC(O)COc1cccc(CCC(=O)c2c(C)cc(C)cc2C)c1.Cl (centres unmarked) [Beispiel 11, 1-(2,4,6-Trimethylphenyl)-3-[3′-(2-hydroxy-3-tert.-pentylaminopropoxy)-phenyl]-1-propanon-hydrochlorid] | – | – | 0,95 | 1,15 | 10 | 3.3 | – | –
7 | Cc1cc(C)c(C(=O)CCc2cccc(OCC(O)CNC(C)(C)C)c2)c(C)c1.Cl (centres unmarked) [Beispiel 14, 1-(2,4,6-Trimethylphenyl)-3-[3′-(2-hydroxy-3-tert.-butylaminopropoxy)-phenyl]-1-propanon-hydrochlorid] | – | – | 0,95 | 1,47 | 20 | 11.9 | – | –
8 | Cc1cc(C)c(C(=O)CCc2cccc(OCC(O)CNC(C)C)c2)c(C)c1.Cc1cc(C)c(C(=O)CCc2cccc(OCC(O)CNC(C)C)c2)c(C)c1.O=C(O)C(=O)O (centres unmarked) [Beispiel 15, 1-(2,4,6-Trimethylphenyl)-3-[3′-(2-hydroxy-3-isopropylaminopropoxy)-phenyl]-1-propanon-semi-oxalat] | 7,0 µM | 1,0 µM | 0,94 | 1,09 | – | – | – | –
9 | Cc1cc(C)c(CC(=O)Cc2cccc(OCC(O)CNC(C)(C)C)c2)c(C)c1.Cl (centres unmarked) [Beispiel 17, 1-(2,4,6-Trimethylphenyl)-3-[3′-(2-hydroxy-3-tert.-butylaminopropoxy)-phenyl]-propanon-hydrochlorid] | – | – | 0,99 | 1,12 | 15 | 1.7 | – | –
10 | CCCNCC(O)COc1cc(CCC(=O)c2ccc(OC)c(OC)c2)ccc1OC.Cl (centres unmarked) [Beispiel 22, 1-(3,4-Dimethoxyphenyl)-3-[3′-(2-hydroxy-3-n-propylaminopropoxy)-4′-methoxyphenyl]-1-propanon-hydrochlorid] | – | – | 0,99 | 0,97 | 7 | 3.2 | – | –
11 | COc1ccc(C(=O)CCc2ccc(OC)c(OCC(O)CNC(C)C)c2)cc1OC.Cl (centres unmarked) [Beispiel 23, 1-(3,4-Dimethoxyphenyl)-3-[3′-(2-hydroxy-3-isopropylaminopropoxy)-4′-methoxyphenyl]-1-propanon-hydrochlorid] | – | – | 1,05 | 5,00 | 6 | 2.2 | – | –
12 | COc1ccc(C(=O)CCc2ccc(OC)c(OCC(O)CNC(C)(C)C)c2)cc1OC.Cl (centres unmarked) [Beispiel 25, 1-(3,4-Dimethoxyphenyl)-3-[3′-(2-hydroxy-3-tert.-butylaminopropoxy)-4′-methoxyphenyl]-1-propanon-hydrochlorid] | – | – | 1,01 | 1,21 | 6 | 2.4 | – | –
13 | CCC(C)(C)NCC(O)COc1cc(CCC(=O)c2ccc(OC)c(OC)c2)ccc1OC.Cl (centres unmarked) [Beispiel 27, 1-(3,4-Dimethoxyphenyl)-3-[3′-(2-hydroxy-3-tert.-pentylaminopropoxy)-4′-methoxyphenyl]-1-propanon-hydrochlorid] | – | – | 1,05 | 1,25 | 15 | 3.5 | – | –
14 | CCC(C)(C)NCC(O)COc1cc(CCC(=O)c2cc(OC)c(OC)c(OC)c2)ccc1OC.Cl (centres unmarked) [Beispiel 28, 1-(3,4,5-Trimethoxyphenyl)-3-[3′-(2-hydroxy-3-tert.-pentylaminopropoxy)-4′-methoxyphenyl]-1-propanon-hydrochlorid] | – | – | 1,01 | – | 6 | 1.4 | 16 | 11
15 | COc1ccc(CCC(=O)c2cc(OC)c(OC)c(OC)c2)cc1OCC(O)CNC(C)C.Cl (centres unmarked) [Beispiel 30, 1-(3,4,5-Trimethoxyphenyl)-3-[3′-(2-hydroxy-3-isopropylaminopropoxy)-4′-methoxyphenyl]-1-propanon-hydrochlorid] | – | – | 1,01 | 1,13 | 5 | 2.5 | – | –
16 | COc1ccc(CCC(=O)c2cc(OC)c(OC)c(OC)c2)cc1OCC(O)CNC(C)(C)C.Cl (centres unmarked) [Beispiel 31, 1-(3,4,5-Trimethoxyphenyl)-3-[3′-(2-hydroxy-3-tert.-butylaminopropoxy)-4′-methoxyphenyl]-1-propanon-hydrochlorid] | – | – | 0,97 | 1,15 | 5 | 1.4 | 18 | 13
17 | COc1ccc(CCC(=O)c2cc(OC)c(OC)c(OC)c2)cc1OCC(O)CNC1CCCCC1.Cl (centres unmarked) [Beispiel 32, 1-(3,4,5-Trimethoxyphenyl)-3-[3′-(2-hydroxy-3-cyclohexylaminopropoxy)-4′-methoxyphenyl]-1-propanon-hydrochlorid] | – | – | 1,05 | 1,25 | 9 | 1.1 | – | –
18 | COc1ccc(CCC(=O)c2ccccc2OC)cc1OCC(O)CNC(C)(C)C.Cl (centres unmarked) [Beispiel 35, 1-(2-Methoxyphenyl)-3-[3′-(2-hydroxy-3-tert.-butylaminopropoxy)-4′-methoxyphenyl]-1-propanon-hydrochlorid] | – | – | 0,91 | – | 10 | 3 | – | –
19 | CCCNCC(O)COc1cc(CCC(=O)c2ccc(C)cc2)ccc1OC.Cl (centres unmarked) [Beispiel 37, 1-(4-Methylphenyl)-3-[3′-(2-hydroxy-3-n-propylaminopropoxy)-4′-methoxyphenyl]-1-propanon-hydrochlorid] | – | – | 0,94 | 1,22 | 5 | 2.6 | – | –
20 | COc1ccc(CCC(=O)c2ccc(C)cc2)cc1OCC(O)CNC(C)(C)C.Cl (centres unmarked) [Beispiel 39, 1-(4-Methylphenyl)-3-[3′-(2-hydroxy-3-tert.-butylaminopropoxy)-4′-methoxyphenyl]-1-propanon-hydrochlorid] | – | – | 0,94 | 1,51 | 4 | 1.2 | – | –
21 | COc1ccc(CCC(=O)c2ccc(C)cc2)cc1OCC(O)CN1CCCCC1.Cl (centres unmarked) [Beispiel 40, 1-(4-Methylphenyl)-3-[3′-(2-hydroxy-3-piperidinopropoxy)-4′-methoxyphenyl]-1-propanon-hydrochlorid] | – | – | 0,94 | 1,33 | 5 | 1.3 | – | –
22 | CCCNCC(O)COc1cc(CCC(=O)c2c(C)cc(C)cc2C)ccc1OC.O=C(O)C(=O)O (centres unmarked) [Beispiel 44, 1-(2,4,6-Trimethylphenyl)-3-[3′-(2-hydroxy-3-n-propylaminopropoxy)-4′-methoxyphenyl]-1-propanon-oxalat] | – | – | 1,10 | 1,03 | 14 | 1.7 | – | –
23 | CCC(C)(C)NCC(O)COc1cc(CCC(=O)c2ccc3ccccc3c2)ccc1OC.Cl (centres unmarked) [Beispiel 47, 1-(2-Naphthyl)-3-[3′-(2-hydroxy-3-tert.-pentylaminopropoxy)-4′-methoxyphenyl]-1-propanon-hydrochlorid] | – | – | 1,10 | 1,22 | 17 | 6.1 | – | –
24 | CCCNCC(O)COc1cc(CCC(=O)c2ccc3ccccc3c2)ccc1OC.Cl (centres unmarked) [Beispiel 48, 1-(2-Napthyl)-3-[3′-(2-hydroxy-3-n-propylaminopropoxy)-4′-methoxyphenyl]-1-propanon-hydrochlorid] | 9,0 µM | 1,1 µM | 0,90 | 1,43 | – | – | – | –
25 | COc1ccc(CCC(=O)c2ccc3ccccc3c2)cc1OCC(O)CNC(C)C.Cl (centres unmarked) [Beispiel 49, 1-(2-Naphthyl)-3-[3′-(2-hydroxy-3-isopropylaminopropoxy)-4′-methoxyphenyl]-1-propanon-hydrochlorid] | – | – | 0,50 | 4,00 | 14 | 12.1 | – | –
